This is an account of results in patent publication US11008572B2, “Methods and compositions for modulating splicing” (SKYHAWK THERAPEUTICS, INC., priority 2017, dated 2021).

The subject of assay [1] is A-673 cells. Description: Cell viability, crystal violet staining. The format is cell-based. The following applies: Homo sapiens, A673, cell viability, read-out: A-673 IC50 (nM), Cell viability. Summed up: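 Readout is absorbance at 570 nm of crystal violet, taken up in 0.1 M sodium citrate in 50% ethanol after staining with 0.5% dye in 25% methanol. Plates held 5×10^3 cells per well, and compounds were added one day after seeding for 72 hours. Data are relative to vehicle, mean±SE.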

Assay [2] deals with FOXM1^A2 mRNA and FOXM1^BC mRNA. Kind of assay: Splicing assay (FOXM1), qPCR of isoform mRNAs. To be noted: 0.1-1000 nM, 24 hours; for IC50: 24 h, FoxM1 BC mRNA decrease (exon included), read-out: Splice IC50 (nM), FoxM1 BC mRNA decrease (exon included); for EC50: FoxM1 A mRNA increase (exon excluded), read-out: Splice EC50 (nM), FoxM1 A mRNA increase (exon excluded). Format: cell-based. Summed up:
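Cells (20,000/well) treated at plating with compound, 8-point 4-fold series from 10 μM, 0.2% DMSO, 24 h at 37° C. Isoform mRNAs quantified by RT-qPCR against plasmid standards, normalized to PPIA and DMSO control; isoform ratio computed per concentration.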

Where only a bound is given, the exact number is not on record here.

What is called IC50 is the midpoint of a concentration-inhibition curve. What is called EC50 is the concentration needed to bring the measured effect to its halfway point. `Cc1nccn1-c1ccc(-c2ccc(N(C)[C@@H]3C[C@H]4CC[C@@H](C3)N4)nn2)c(O)c1` [compound 230, 2-(6-(((1R,3s,5S)-8-azabicyclo[3.2.1]octan-3-yl)(methyl)amino)pyridazin-3-yl)-5-(2-methyl-1H-imidazol-1-yl)phenol]: the IC50 in assay [1] was above 1000 nM. In assay [2], the 50% inhibitory concentration (IC50) was 501 to 1000 nM and the EC50 lay in the range of 101 to 250 nM.
Regarding `Cc1cn(-c2ccc(-c3ccc(N(C)[C@@H]4C[C@H]5CC[C@@H](C4)N5)nn3)c(O)c2)c(C)n1` [compound 231, 2-(6-(((1R,3s,5S)-8-azabicyclo[3.2.1]octan-3-yl)(methyl)amino)pyridazin-3-yl)-5-(2,4-dimethyl-1H-imidazol-1-yl)phenol], the values for the IC50 in assay [1] and in assay [2] were above 1000 nM and 501 to 1000 nM, respectively. The half-maximal effective concentration (EC50) in assay [2] fell in the range of 251 to 500 nM.
Consider `CN(c1ccc(-c2ccc(-c3nnc(C(F)(F)F)o3)cc2O)nn1)[C@@H]1C[C@H]2CC[C@@H](C1)N2` [compound 232, 2-(6-(((1R,3s,5S)-8-azabicyclo[3.2.1]octan-3-yl)(methyl)amino)pyridazin-3-yl)-5-(5-(trifluoromethyl)-1,3,4-oxadiazol-2-yl)phenol], for which the values for the half-maximal inhibitory concentration (IC50) in assay [1] and in assay [2] were above 1000 nM and 501 to 1000 nM, respectively. The EC50 in assay [2] was in the range of 101 to 250 nM.
Consider `Cc1nnn(-c2ccc(-c3ccc(N(C)[C@@H]4C[C@H]5CC[C@@H](C4)N5)nn3)c(O)c2)n1` [compound 234, 2-(6-(((1R,3s,5S)-8-azabicyclo[3.2.1]octan-3-yl)(methyl)amino)pyridazin-3-yl)-5-(5-methyl-2H-tetrazol-2-yl)phenol], for which the IC50 in assay [1] and in assay [2] was 10 to 100 nM throughout. In assay [2], the concentration for a half-maximal effect (EC50) lay in the range of 10 to 100 nM.
In the case of `Cc1ccc(-c2ccc(-c3ccc(N(C)[C@@H]4C[C@H]5CC[C@@H](C4)N5)nn3)c(O)c2)nn1` [compound 239, 2-(6-(((1R,3s,5S)-8-azabicyclo[3.2.1]octan-3-yl)(methyl)amino)pyridazin-3-yl)-5-(6-methylpyridazin-3-yl)phenol], the figures for the IC50 in assay [1] and in assay [2] were 251 to 500 nM and below 10 nM, respectively. The EC50 in assay [2] is below 10 nM.
In the case of `CN(c1ccc(-c2ccc(-c3ccc(=O)n(C)c3)cc2O)nn1)[C@@H]1C[C@H]2CC[C@@H](C1)N2` [compound 241, 5-(4-(6-(((1R,3s,5S)-8-azabicyclo[3.2.1]octan-3-yl)(methyl)amino)pyridazin-3-yl)-3-hydroxyphenyl)-1-methylpyridin-2(1H)-one], the figures for the IC50 in assay [1] and in assay [2] were 101 to 250 nM and 10 to 100 nM, respectively. For the same molecule, the concentration giving a half-maximal response (EC50) in assay [2] was below 10 nM.
With `CN(c1ccc(-c2ccc(-n3cnc(C(F)(F)F)c3)cc2O)nn1)[C@@H]1C[C@H]2CC[C@@H](C1)N2` [compound 242, 2-(6-(((1R,3s,5S)-8-azabicyclo[3.2.1]octan-3-yl)(methyl)amino)pyridazin-3-yl)-5-(4-(trifluoromethyl)-1H-imidazol-1-yl)phenol], the IC50 in assay [1] is 251 to 500 nM. In assay [2], the IC50 was 101 to 250 nM and the EC50 lay in the range of 10 to 100 nM.
As to `CN(c1ccc(-c2ccc(-n3cncn3)cc2O)nn1)[C@@H]1C[C@H]2CC[C@@H](C1)N2` [compound 243], the IC50 in assay [1] and in assay [2] was 10 to 100 nM throughout. The 50% effective concentration (EC50) in assay [2] was below 10 nM.
Take `Cc1cn(-c2ccc(-c3ccc(O[C@@H]4C[C@H]5CC[C@@H](C4)N5)nn3)c(O)c2)cn1` [compound 246, 2-(6-(((1R,3s,5S)-8-azabicyclo[3.2.1]octan-3-yl)oxy)pyridazin-3-yl)-5-(4-methyl-1H-imidazol-1-yl)phenol]: the half-inhibitory concentration (IC50) in assay [1] lay in the range of 251 to 500 nM; in assay [2], 101 to 250 nM. In addition, the half-maximal effective concentration (EC50) in assay [2] was 10 to 100 nM.
For `Cc1cnn(-c2ccc(-c3ccc(O[C@@H]4C[C@H]5CC[C@@H](C4)N5)nn3)c(O)c2)c1` [compound 249, 2-(6-(((1R,3s,5S)-8-azabicyclo[3.2.1]octan-3-yl)oxy)pyridazin-3-yl)-5-(4-methyl-1H-pyrazol-1-yl)phenol], in that order: 501 to 1000 nM, 251 to 500 nM and 101 to 250 nM.
Take `Cc1ccn(-c2ccc(-c3ccc(O[C@@H]4C[C@H]5CC[C@@H](C4)N5)nn3)c(O)c2)n1` [compound 250, 2-(6-(((1R,3s,5S)-8-azabicyclo[3.2.1]octan-3-yl)oxy)pyridazin-3-yl)-5-(3-methyl-1H-pyrazol-1-yl)phenol]: the IC50 in assay [1] lay in the range of 501 to 1000 nM. Further, in assay [2], the IC50 is 101 to 250 nM and the EC50 was in the range of 10 to 100 nM.
As to `Oc1cc(-n2ccnn2)ccc1-c1ccc(O[C@@H]2C[C@H]3CC[C@@H](C2)N3)nn1` [compound 252, 2-(6-(((1R,3s,5S)-8-azabicyclo[3.2.1]octan-3-yl)oxy)pyridazin-3-yl)-5-(1H-1,2,3-triazol-1-yl)phenol], the IC50 in assay [1] lay within 501 to 1000 nM. In assay [2], the IC50 was 251 to 500 nM and the EC50 lay within 101 to 250 nM.
For `Oc1cc(-c2nnn[nH]2)ccc1-c1ccc(O[C@@H]2C[C@H]3CC[C@@H](C2)N3)nn1` [compound 254, 2-(6-(((1R,3s,5S)-8-azabicyclo[3.2.1]octan-3-yl)oxy)pyridazin-3-yl)-5-(1H-tetrazol-5-yl)phenol], in assay [1], the IC50 was above 1000 nM. Moreover, in assay [2], the IC50 is above 1000 nM and the EC50 is above 1000 nM.
For `Cc1ncc(-c2ccc(-c3ccc(O[C@@H]4C[C@H]5CC[C@@H](C4)N5)nn3)c(O)c2)o1` [compound 255, 2-(6-(((1R,3s,5S)-8-azabicyclo[3.2.1]octan-3-yl)oxy)pyridazin-3-yl)-5-(2-methyloxazol-5-yl)phenol], the IC50 in assay [1] fell in the range of 501 to 1000 nM. Further, in assay [2], the IC50 was in the range of 101 to 250 nM and the EC50 lay in the range of 101 to 250 nM.
On to `Cc1cc(-c2ccc(-c3ccc(O[C@@H]4C[C@H]5CC[C@@H](C4)N5)nn3)c(O)c2)on1` [compound 256, 2-(6-(((1R,3s,5S)-8-azabicyclo[3.2.1]octan-3-yl)oxy)pyridazin-3-yl)-5-(3-methylisoxazol-5-yl)phenol], for which the IC50 in assay [1] was above 1000 nM. In addition, in assay [2], the IC50 is above 1000 nM and the EC50 was above 1000 nM.
As for `CN(c1ccc(-c2ccc(-n3nccn3)cc2O)nn1)[C@@H]1C[C@H]2CCC[C@@H](C1)N2` [compound 275, 2-(6-(((1R,3s,5S)-9-azabicyclo[3.3.1]nonan-3-yl)(methyl)amino)pyridazin-3-yl)-5-(2H-1,2,3-triazol-2-yl)phenol], in assay [1], the IC50 is below 10 nM. For the same molecule, in assay [2], the IC50 was below 10 nM and the EC50 was below 10 nM.
Turning to `Oc1cc(-c2cn[nH]c2)ccc1-c1ccc(O[C@H]2CC3CCC[C@@H](C2)N3)nn1` [compound 277, 2-(6-(((1R,3r,5S)-9-azabicyclo[3.3.1]nonan-3-yl)oxy)pyridazin-3-yl)-5-(1H-pyrazol-4-yl)phenol], the IC50 in assay [1] was above 1000 nM. Further, in assay [2], the IC50 is above 1000 nM and the EC50 was above 1000 nM.
For `CN(c1ccc(-c2ccc(-n3ccnn3)cc2O)nn1)[C@@H]1C[C@H]2CCC[C@@H](C1)N2` [compound 279, 2-(6-(((1R,3s,5S)-9-azabicyclo[3.3.1]nonan-3-yl)(methyl)amino)pyridazin-3-yl)-5-(1H-1,2,3-triazol-1-yl)phenol], the IC50 in assay [1] is 10 to 100 nM. In addition, in assay [2], the IC50 is below 10 nM and the EC50 is below 10 nM.
For the molecule `[2H]C([2H])([2H])n1ncc(-c2ccc(-c3ccc(N(C)C4CC5CCCC(C4)N5)nn3)c(O)c2)cc1=O` [compound 281, 5-(4-(6-(((1R,3s,5S)-9-azabicyclo[3.3.1]nonan-3-yl)(methyl)amino)pyridazin-3-yl)-3-hydroxyphenyl)-2-(methyl-d3)pyridazin-3(2H)-one], the IC50 in assay [1] and in assay [2] was below 10 nM in each case. In addition, the EC50 in assay [2] is below 10 nM.
Turning to `[2H]C([2H])([2H])n1ccc(-c2ccc(-c3ccc(N(C)C4CC5CCCC(C4)N5)nn3)c(O)c2)cc1=O` [compound 284, 4-(4-(6-(((1R,3s,5S)-9-azabicyclo[3.3.1]nonan-3-yl)(methyl)amino)pyridazin-3-yl)-3-hydroxyphenyl)-1-(methyl-d3)pyridin-2(1H)-one], the IC50 in assay [1] was below 10 nM. In assay [2], the IC50 was below 10 nM and the EC50 is above 1000 nM.
`CN(c1ccc(-c2cc(F)c(-c3ccn(C)c(=O)c3)cc2O)nn1)[C@@H]1C[C@H]2CCC[C@@H](C1)N2` [compound 285, 4-(4-(6-(((1R,3s,5S)-9-azabicyclo[3.3.1]nonan-3-yl)(methyl)amino)pyridazin-3-yl)-2-fluoro-5-hydroxyphenyl)-1-methylpyridin-2(1H)-one]: the half-maximal inhibitory concentration (IC50) in assay [1] is below 10 nM. In assay [2], the IC50 is below 10 nM and the EC50 was above 1000 nM.
With `CN(c1ccc(-c2cc3oc(C(=O)NC4CC4)cc3cc2O)nn1)[C@@H]1C[C@H]2CCC[C@@H](C1)N2` [compound 296, 6-(6-(((1R,3s,5S)-9-azabicyclo[3.3.1]nonan-3-yl)(methyl)amino)pyridazin-3-yl)-N-cyclopropyl-5-hydroxybenzofuran-2-carboxamide], the half-maximal inhibitory concentration (IC50) in assay [1] lay in the range of 101 to 250 nM. Also, in assay [2], the IC50 lay in the range of 10 to 100 nM and the half-maximal effective concentration (EC50) is below 10 nM.
As to `[2H]C([2H])([2H])c1ncc(-c2cc(O)c(-c3ccc(N(C)[C@H]4C[C@]5(C)CC[C@](C)(C4)N5)nn3)cc2F)o1` [compound 304, 2-(6-(((1R,3s,5S)-1,5-dimethyl-8-azabicyclo[3.2.1]octan-3-yl)(methyl)amino)pyridazin-3-yl)-4-fluoro-5-(2-(methyl-d3)oxazol-5-yl)phenol], the results for the IC50 in assay [1] and in assay [2] were 10 to 100 nM and below 10 nM, respectively. For the same molecule, the EC50 in assay [2] was above 1000 nM.
